Here are results for 24 substances from patent US20230226212A1, “MUSCLE-TARGETING COMPLEXES AND USES THEREOF” (Dyne Therapeutics, Inc., priority 2020, published 2023).

Like-named read-outs stand apart in the source and are kept apart here.

The test system of data set [1] is DMPK. Briefly: DMPK knockdown by unconjugated PMOs in primary human myotubes (Example 23). It is filed as cell-based. As to conditions: unconjugated PMO; 3 days; qPCR. On the procedure: Additional DMPK targeting oligonucleotides (PMOs) were designed and tested for their activity in reducing DMPK expression in primary human myotubes. Wild-type primary myoblasts were cultured in PromoCell Skeletal Muscle growth medium with 5% FBS and penicillin/streptomycin until nearly confluent. Cells were then seeded into a 96 well plate at 50000 cells per well and allowed to recover for 24 hours. Cells were then differentiated in a differentiation medium of DMEM with glutamine and penicillin/streptomycin for 7 days. Cells were then treated with the unconjugated PMO for 3 days. Total RNA was collected from cells, cDNA was synthesized and DMPK expression was measured by qPCR.

Data set [2] deals with DMPK. Briefly: DMPK transcript knockdown by oligonucleotides in RD cells (Example 21). It counts as cell-based. As to conditions: free or transfected oligonucleotide, 3 days, relative to PBS-treated cells. On the procedure:
DMPK-targeting oligonucleotides (e.g., ASO) were tested in rhabdomyosarcoma (RD) cells for knockdown of DMPK transcript expression. RD cells were cultured in a growth medium of DMEM with glutamine, supplemented with 10% FBS and penicillin/streptomycin until nearly confluent. Cells were then seeded into a 96 well plate at 20 K cells per well and were allowed to recover for 24 hours. Cells were then treated with free DMPK-targeting oligonucleotides or by transfection of the oligonucleotides using 0.3 µL per well of Lipofectamine MessengerMAX transfection reagent. After 3 days, total RNA was collected from cells, cDNA was synthesized and DMPK expression was measured by qPCR.

The subject of data set [3] is DMPK. Briefly: DMPK expression in DM1 myotubes (Example 15). It is filed as cell-based. As to conditions: dose-responsive. An excerpt: (§1) The antisense oligonucleotides were further assessed to identify oligos that are safe in vivo (e.g., as indicated by low immunogenicity as measured by cytokine induction), and further based on manufacturability and secondary structure considerations. Three antisense oligonucleotides, […] (SEQ ID NO: 329, DMPK-ASO-1), […] (SEQ ID NO: 330, DMPK-ASO-2), and […] (SEQ ID NO: 331, DMPK-ASO-3) were selected. These oligonucleotides were then further evaluated for their ability to reduce DMPK expression in DM1 myotubes and NHP myotubes in a dose-responsive manner. The tool compound control DMPK-ASO was used as control.

Data set [4] concerns DMPK. Briefly: DMPK expression in NHP myotubes (Example 15). It counts as cell-based. To be noted: dose-responsive.
Description: as §1

Data set [5] deals with mdx mice. Briefly: open field chamber with hind limb fatigue challenge in mdx mice (Example 14). It counts as in vivo, mouse. As to conditions: single i.v. dose 30 mg/kg, two weeks after injection, hind limb fatigue challenge between stages. On the procedure: (§2) Each experimental condition was replicated in five mdx mice. Five wild-type mice (healthy mice) were also dosed with vehicle control (saline).
Two weeks after injection, the functional activity of all treated mice was determined using an open field chamber experiment. The experiment involved three consecutive stages: (1) a 10-minute period during which each mouse was placed into an open field chamber; (2) a 10-minute period during which each mouse was subjected to a hind limb fatigue challenge; and (3) a 10-minute period during which each mouse was placed into an open field chamber. The total horizontal distances traveled during stages (1) and (3) were collected. The percent change in the total distance traveled between the first and second tests.

A further data set deals with creatine kinase. Briefly: creatine kinase activity levels in mdx mice (Example 14). As to conditions: single i.v. dose 30 mg/kg, two and four weeks after injection. It counts as in vivo, mouse. The protocol: as §2
All mice in this Example were further tested for creatine kinase activity levels two weeks and four weeks after injection.

Data set [6] concerns mdx mice. Briefly: cage running wheel test in mdx mice (Example 14). It is filed as in vivo, mouse. As to conditions: single i.v. dose 30 mg/kg, four weeks after injection, 24-hour period. On the procedure:
as §2
Four weeks after injection, the activity of all treated mice was determined using a cage running wheel test. Each mouse was individually placed into cages with a running wheel for a 24-hour period. The 24-hour period involved five hours of light on followed by thirteen hours of darkness, and ending with six hours of light. The total distance traveled (in meters, m) by each mouse on the running wheel was continuously collected throughout the 24-hour period and subsequently binned into discrete one-hour increments.

Data set [7] has as its system DUX4. Briefly: expression of downstream DUX4 genes in U-2 OS cells (Example 12). It counts as cell-based, human. To be noted: 72 hours. The protocol:
Human U-2 OS cells were dosed with the complex. Briefly, U-2 OS cells were seeded at a density of 10 k cells/well before being allowed to recover overnight. […] Cells were incubated for 72 hours before being harvested for total RNA. cDNA was then synthesized from the total RNA extracts and qPCR was performed to determine expression of downstream DUX4 genes (ZSCAN4, MBD3L2, TRIM43) in technical quadruplicate. All qPCR data were analyzed using a standard ΔΔCT method and were normalized to a plate-based negative control comprised of untreated cells (i.e., without any oligonucleotide). Results were then converted to fold change to evaluate efficacy.

Data set [8] concerns DUX4. Briefly: expression of DUX4-associated genes in FSHD patient-derived myotubes (Example 26). It counts as cell-based. On the procedure: FSHD patient-derived myotubes were treated with FM-10 conjugated to an anti-TfRl Fab or naked FM-10. FM-10 has the sequence 5′-[…]-3′ (SEQ ID NO: 260). Expression of mRNA transcribed from three genes known to be only expressed following DUX4 activation was subsequently measured in the myotubes. Expression of these three DUX4-associated genes was reduced, as shown in FIG. 41A (naked oligonucleotide) and 41B (Ab-oligonucleotide).

Data set [9] deals with human transferrin receptor 1 (human) (UniProt P02786). Briefly: Carterra LSA biosensor, IgG captured on anti-IgG lawn, hTfR1 injected, 25C, 1:1 fit.
Sequence of human transferrin receptor 1 (human) (P02786 89-760 limits assumed): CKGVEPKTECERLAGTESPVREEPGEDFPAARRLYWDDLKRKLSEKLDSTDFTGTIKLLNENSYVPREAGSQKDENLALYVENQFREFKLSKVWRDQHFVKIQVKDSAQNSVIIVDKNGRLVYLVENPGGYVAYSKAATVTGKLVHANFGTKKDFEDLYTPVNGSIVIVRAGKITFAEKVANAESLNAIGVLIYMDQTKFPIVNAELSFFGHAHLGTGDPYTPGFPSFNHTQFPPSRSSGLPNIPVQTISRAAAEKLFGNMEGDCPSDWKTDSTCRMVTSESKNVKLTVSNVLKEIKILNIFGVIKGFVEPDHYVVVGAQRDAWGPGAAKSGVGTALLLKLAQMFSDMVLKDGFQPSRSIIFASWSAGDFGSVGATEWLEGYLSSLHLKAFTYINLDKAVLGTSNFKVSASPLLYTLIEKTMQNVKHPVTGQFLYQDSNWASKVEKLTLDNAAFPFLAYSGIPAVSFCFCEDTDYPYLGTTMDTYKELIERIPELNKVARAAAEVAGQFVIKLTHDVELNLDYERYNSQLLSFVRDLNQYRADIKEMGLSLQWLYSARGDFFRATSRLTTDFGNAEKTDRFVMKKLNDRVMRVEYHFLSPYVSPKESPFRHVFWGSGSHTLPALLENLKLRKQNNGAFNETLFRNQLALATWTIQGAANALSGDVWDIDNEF

As to “ACGATGGGCTCCGCTGGG (SEQ ID NO: 316) (all phosphorodiamidate morpholino (PMO)) [PMO 8, DMPK-targeting PMO, Exon 2]”, the “% DMPK Knockdown in Primary Human Myotubes” value (shortened to “% DMPK Knockdown”) in the data set on DMPK [1] worked out at 60%.

Regarding “AGGGCAGTGCTTACCTGAGGG (SEQ ID NO: 326) (all phosphorodiamidate morpholino (PMO)) [PMO 41, DMPK-targeting PMO, Intron 9-10]”, the “% DMPK Knockdown” value in the data set on DMPK [1] was 57%. For “AGGTACTGAGAAGGGTTCGTC (SEQ ID NO: 319) (all phosphorodiamidate morpholino (PMO)) [PMO 11, DMPK-targeting PMO, Exon 5]”, the “% DMPK Knockdown” value in the data set on DMPK [1] is recorded as 40%. Still for that read-out and setting: under “ATGACCAGGTACTGAGAAGGG (SEQ ID NO: 318) (all phosphorodiamidate morpholino (PMO)) [PMO 10, DMPK-targeting PMO, Exon 5]” stands 33%. Same read-out and setting: under “ATGGGCTCCGCTGGGTGGTGG (SEQ ID NO: 315) (all phosphorodiamidate morpholino (PMO)) [PMO 7, DMPK-targeting PMO, Exon 2]” stands 11%; under “CAGGTGACAGTTCAGGTGCAG (SEQ ID NO: 309) (all phosphorodiamidate morpholino (PMO)) [PMO 1, DMPK-targeting PMO, intron 1-2]”, 59%.

“CCACCCTCTGTCTGTCTCC (SEQ ID NO: 313) (all phosphorodiamidate morpholino (PMO)) [PMO 5, DMPK-targeting PMO, intron 1-2]”: in the data set with DMPK [1], the “% DMPK Knockdown” value was 64%. On the same count and under the same terms, under “CCATCCTTGGGCAGAGACCT (SEQ ID NO: 317) (all phosphorodiamidate morpholino (PMO)) [PMO 9, DMPK-targeting PMO, Intron 4-5]” stands 41%.

As for “CCAUCUCGGCCGGAAUCCGC (SEQ ID NO: 331) (chemistry not given here) [DMPK-ASO-3, DMPK-targeting antisense oligonucleotide]”, the DMPK expression level result in the data set with DMPK [2] is given as “reduced”. The “reduction of DMPK expression in DM1 myotubes” value (shortened to “reduction … in DM1 myotubes”) in the data set with DMPK [3] is on record as “dose-dependently reducing DMPK”. Moreover, the “reduction of DMPK expression in NHP myotubes” value (shortened to “reduction … in NHP myotubes”) with DMPK [4] was “dose-dependently reducing DMPK”. Take “CCCAGCGCCCACCAGUCACA (SEQ ID NO: 330) (chemistry not given here) [DMPK-ASO-2, DMPK-targeting antisense oligonucleotide]”: the DMPK expression level entry with DMPK [2] was “reduced”. In addition, the “reduction … in DM1 myotubes” value in the data set with DMPK [3] is on record as “dose-dependently reducing DMPK”. The “reduction … in NHP myotubes” value with DMPK [4] is recorded as “dose-dependently reducing DMPK”.

In the case of “CCTTCTCTCTGCCTCTCAGCTT (SEQ ID NO: 312) (all phosphorodiamidate morpholino (PMO)) [PMO 4, DMPK-targeting PMO, intron 1-2]”, the “% DMPK Knockdown” value in the data set with DMPK [1] is given as 58%. On the same count and under the same terms, under “CGGAGCTCACCAGGTAGTTCT (SEQ ID NO: 325) (all phosphorodiamidate morpholino (PMO)) [PMO 40, DMPK-targeting PMO, Intron 4-5]” stands 73%; under “GAGAAGGAAATAAGACCCAGTT (SEQ ID NO: 311) (all phosphorodiamidate morpholino (PMO)) [PMO 3, DMPK-targeting PMO, intron 1-2]”, 14%; under “GCCTAGGGACCTGCGGGAGAG (SEQ ID NO: 321) (all phosphorodiamidate morpholino (PMO)) [PMO 13, DMPK-targeting PMO, Exon 15]”, 62%. On the same count and under the same terms, as for “GCCTTTTATTCGCGAGGGTCGG (SEQ ID NO: 322) (all phosphorodiamidate morpholino (PMO)) [PMO 14, DMPK-targeting PMO, polyA]”, the figure is 73%. With “GCGUAGAAGGGCGUCUGCCC (SEQ ID NO: 329) (chemistry not given here) [DMPK-ASO-1, DMPK-targeting antisense oligonucleotide]”, the DMPK expression level result in the data set with DMPK [2] was “reduced”. Moreover, the “reduction … in DM1 myotubes” value with DMPK [3] is recorded as “dose-dependently reducing DMPK”. For the same substance, the “reduction … in NHP myotubes” value in the data set on DMPK [4] is listed as “dose-dependently reducing DMPK”.

With “GGCCAAACCUCGGCUUACCUGAAAU (SEQ ID NO: 261) (PMO chemistry, chemistry not fully specified) [MDX-ASO, naked exon 23 skipping PMO ASO]”, the “average less distance traveled during stage (3) relative to stage (1), open field” value in the data set on mdx mice [5] is listed as “about 85%”. Further, the creatine kinase activity result in the data set with creatine kinase was “no significant benefit”. In the data set with mdx mice [6], the “distance traveled on running wheel during the dark period” value is reported as “traveled considerably shorter distances”. On to “GGGCATTTTAATATATCTCTGAACT (SEQ ID NO: 260) (PMO chemistry, chemistry not fully specified) [naked FM10, phosphorodiamidate morpholino oligomer (PMO) targeting DUX4]”, for which the “ZSCAN4, MBD3L2, and TRIM43 expression” value with DUX4 [7] (1 µM) is “fails to reduce”. Also, the MDB3L2 expression entry in the data set with DUX4 [7] (10 µM) is given as “no effect”. Besides, the “ZSCAN4 and TRIM43 expression” value in the data set on DUX4 [7] (10 µM) is given as “modest reduction”. For the same substance, the “expression of three DUX4-associated genes” value in the data set on DUX4 [8] is listed as “reduced”. Further, the IC50 (in general, the concentration needed to halve the response being measured) turned out to be 1210 nM in the data set on DUX4 [8] (MBD3L2 transcript, read-out: IC50 (nM), MBD3L2); 1120 nM with DUX4 [8] (TRIM43 transcript, read-out: IC50 (nM), TRIM43); 643 nM in the data set on DUX4 [8] (ZSCAN4 transcript, read-out: IC50 (nM), ZSCAN4). As for “TAGGCACTCACCCACTGCAAGA (SEQ ID NO: 324) (all phosphorodiamidate morpholino (PMO)) [PMO 39, DMPK-targeting PMO, Exon 1]”, the “% DMPK Knockdown” value in the data set on DMPK [1] is 69%.

In the case of “TAGGGACCTGCGGAGAGGGCGA (SEQ ID NO: 320) (all phosphorodiamidate morpholino (PMO)) [PMO 12, DMPK-targeting PMO, Exon 15]”, in the data set with DMPK [1], the “% DMPK Knockdown” value was 35%. Still for that read-out and setting: as for “TCCACCCTGACTCCAGGTGAC (SEQ ID NO: 310) (all phosphorodiamidate morpholino (PMO)) [PMO 2, DMPK-targeting PMO, intron 1-2]”, the figure is 16%.

For “TCCGCTGGGTGGTGGGAAAAGAA (SEQ ID NO: 314) (all phosphorodiamidate morpholino (PMO)) [PMO 6, DMPK-targeting PMO, Exon 2]”, the “% DMPK Knockdown” value with DMPK [1] is on record as 9%. Same read-out and setting: as for “TGGAGGGCCTTTTATTCGCGAGG (SEQ ID NO: 323) (all phosphorodiamidate morpholino (PMO)) [PMO 15, DMPK-targeting PMO, polyA]”, the figure is 66%. Regarding “anti-TfR1 antibody OKT9 (mouse IgG, control)”, in data set [9], the dissociation constant (Kd) (usually the equilibrium constant for the complex coming apart) was 0.536 nM and the kon (in general, the second-order rate constant of association) was found to be 774000 M⁻¹ s⁻¹.
